What was measured:
UPEC strain CFT073 [1] = assay: Checkerboard analysis of BAP with pantothenamide in pooled human urine; type: cell-based, Escherichia coli; conditions: combination with BAP, UPEC in urine batch B
Experimental: As previously described ([7]), an inoculum of 10^5 CFU/mL CFT073 was prepared in pooled human urine Batch B (described above). Cells (100 µL) were added 1:1 to a 96-well plate containing varied combinations of BAP and 1 or N5-Pan analog at 2× the final concentration (100 µL). The OD600 was recorded at 37°C for 16 h with intermittent shaking. Fractional growth was calculated relative to the no drug control at 6 h. Experiments were performed in biological triplicate.
Fractional inhibitory concentration indices (FICI) were determined as previously described ([7], [8]) and calculated using equation 2:
FICI=FICA+FICB=([A]/MICA)+([B]/MICB)
MICA and MICB are the lowest [A] or [B], respectively, required to suppress 90% of the bacterial growth. FICA was calculated as [A] in the presence of B for a combination resulting in <10% growth, divided by MICA. FICB was calculated as [B] in the presence of A for a combination resulting in <10% growth, divided by MICB. Isobolograms were prepared from the checkerboard analysis by plotting FIC for BAP and 1 or 6 over the range of BAP concentrations tested in combination with 1 or 6. Points falling below the line of additivity indicate potentiation of activity. See Fig. S6 for the visual representation of the method of assembling isobolograms.

UPEC strain CFT073 [2] = assay: Antimicrobial susceptibility assay, UPEC grown in MOPS-glycerol; type: cell-based, Escherichia coli; conditions: UPEC CFT073 grown in MOPS-glycerol, 24 h, ± standard error; for MIC: Escherichia coli
Excerpt: Unless otherwise noted, all reagents were obtained from commercial sources. BAP, 1, and N5-Pan analogs were synthesized according to previously reported procedures ([31], [53]). Urine was self-collected from adult males and females (not menstruating) between 24 and 57 years old (recruitment was open to donors 18–65 years old), who had not used anti-infectives or cranberry products for at least 7 days prior to collection. The collection protocol was approved by the Johns Hopkins University Institutional Review Boards under IRB study NA_00085130. Informed, written consent was obtained from all participants prior to collection. Urine was collected from at least 7 participants over 14 days, stored at 4°C upon collection, and then pooled, filter-sterilized, and frozen at −20°C. Urine Batch A included five male and three female donors with an average age of 33 years (range: 24–57). Urine Batch B included four male and five female donors with an average age of 26 years (range: 24–43). Samples from two donors (donations made at least 30 days apart) were included in both Batch A and Batch B. Urine Batch C included four male and three female donors with an average age of 27 years (range: 24–36). Urine Batch D included four male and three female donors with an average age of 27 years (range: 25–35). Solid urine agar plates were prepared by supplementing cooled 1.5% (wt/vol) agar with filter-sterilized urine in a 4:1 ratio. Liquid MOPS-glycerol was prepared by adding 10 × 3-(N-morpholino)propanesulfonic acid (MOPS) Buffer (Teknova) to water to a final 1× concentration, 1.32 mM K2HPO4, and 0.4% (vol/vol) glycerol and then filter-sterilizing. Unless otherwise noted, all media were supplemented with freshly prepared 20 µM FeSO4. OD600 analyses were performed on Mettler-Toledo UV5Bio UV/Visible spectrophotometer (Columbus, Ohio, USA). For antimicrobial studies, uropathogenic E. coli strain CFT073 (ATCC: BAA-2503) was provided by Kevin Schwartz from the lab of Rodney Welch. All manipulation of UPEC was conducted in a certified biosafety level 2 (BSL-2) laboratory while using BSL-2-associated safety procedures. Antimicrobial data were collected on a Biotek Epoch 2 microplate reader or a Biotek Synergy Neo 2 microplate reader. For metabolic stability studies, losartan potassium (PHR1602), used as an internal standard, was bought from Millipore Sigma (Burlington, MA). Methanol (A456-4) and acetonitrile (A955-4) were purchased from Fisher Chemical (Pittsburgh, PA). Water (9831-03) was purchased from JT Baker (Philipsburg, NJ). Dimethyl sulfoxide (DMSO)(154938-500mL) was purchased from Sigma Aldrich (St. Louis, MO). Mouse plasma (WT) was purchased from Innovative Research (Novi, MI). Mouse liver microsomes (M1000) were purchased from XenoTech LLC (Kansas City, KS).
All antimicrobial susceptibility assays were conducted as previously described using an aseptic technique with some modification ([7]). Briefly, 3–5 isolated colonies of CFT073 on LB agar or pooled urine agar were inoculated into 3 mL of liquid MOPS-glycerol medium or pooled urine, respectively, and grown overnight with shaking at 37°C. Saturated cultures were diluted 1:50 in fresh medium and grown to an OD600 of 0.4. These exponential phase cultures were then diluted 1:1,000 into fresh medium to yield the experimental inoculum, which was mixed 1:1 with medium containing 1 or N5-Pan analog at twice the desired final concentration in 96-well plates. The final concentration of bacteria in each well was approximately 10^5 CFU/mL in a final volume of 200 µL. The concentration ranges of compounds evaluated in MOPS-glycerol were: 1 (0–312.5 μM), 2 (0–100 μM), 3 (0–500 μM), 4–5 (0–2,000 μM), 6–7 (0–100 μM), and 8–12 (0-2,000 μM). Analogs 1, 6, and 7 were evaluated over a range of 0–4,000 μM in four batches of pooled human urine. The OD600 was monitored for 24 h (MOPS-glycerol) or 16 h (pooled urine) at 37°C with periodic shaking. […]

Structure (SMILES) | effect of BAP on activity (isobologram analysis) (UPEC strain CFT073 [1]) | MIC (UPEC strain CFT073 [2]) | MIC MOPS-glycerol (UPEC strain CFT073 [2]) | Fractional inhibitory concentration index (FICI) (UPEC strain CFT073 [1]; range across experiments)
CCCCCNC(=O)CCNC(=O)[C@H](O)C(C)(C)CO [compound 1, N-pentylpantothenamide, reference compound] | potentiates the activity | 2.44 µM | 2.44 ± 0.00 µM | –
CCCCCNC(=O)CNC(=O)[C@H](O)C(C)(C)CO [compound 6, N5-α-pantothenamide] | potentiates the activity | 6.25 µM | 6.25 ± 0.00 µM | 0.5–1.25
